Columns and labels:
[1] = test system: all three classes of fusion proteins, including Zika, EBOV, influenza A virus (IAV), SFV, VEEV, VSV and EBV; type: cell-based; details: for fusion blocked: 10 μM
[2] = test system: human Adenovirus Type 5 (dE1/E3) containing GFP (Ad-GFP); assay: Ad-GFP infection of HEp2 cells evaluated by fluorescent microscope; type: cell-based; details: 10 μM, HEp2, 20 MOI, 24 hours
[3] = test system: two clinical isolates of HCMV; assay: HCMV plaque assay in human foreskin fibroblasts; type: cell-based; details: HFF, 0-10 μM GA C15:1, 7 days
ZIKV (strain PRVABC59) = assay: ZIKV infection of Normal Human Astrocytes, Zika viral RNA by Taqman real-time PCR; type: cell-based, Zika virus; details: 5 μM to 20 μM, day 7
EBOV fusion protein = EBOV fusion protein (Zaire ebolavirus, UniProt Q05320); type: cell-based, Ebola
HSV-1 F' [4] = assay: HSV-1 stock pre-treated with GA, infection of HEp2 or 293T, western blotting of ICP27, ICP8, Us11; type: cell-based; details: 10 MOI stock treated 1 hour with 50 μM, diluted to 0.5 MOI / 2.5 μM; HEp2 and 293T; 5, 10 and 29 hours post-infection
HCMV-GFP = HCMV-GFP infection of HFF evaluated by fluorescent microscope; type: cell-based; details: 7 days
HSV-1 F' [5] = assay: GA added to already HSV-1 infected HEp2 and 293T cells, WB detection of HSV-1 proteins; type: cell-based; details: 10 μM added 2 hours after infection at 1 MOI
HCMV = HCMV DNA copies in infected HFF by qPCR targeting the viral polymerase gene; type: cell-based; details: 7 dpi
[6] = test system: HEp2, 293T, Human foreskin fibroblasts (HFF) and Normal Human Astrocytes (NHAs); assay: Toxicity of GA to the tested cells; details: at the active concentration (not shown)

EBOV fusion protein, sequence (Q05320 33-501 limits assumed): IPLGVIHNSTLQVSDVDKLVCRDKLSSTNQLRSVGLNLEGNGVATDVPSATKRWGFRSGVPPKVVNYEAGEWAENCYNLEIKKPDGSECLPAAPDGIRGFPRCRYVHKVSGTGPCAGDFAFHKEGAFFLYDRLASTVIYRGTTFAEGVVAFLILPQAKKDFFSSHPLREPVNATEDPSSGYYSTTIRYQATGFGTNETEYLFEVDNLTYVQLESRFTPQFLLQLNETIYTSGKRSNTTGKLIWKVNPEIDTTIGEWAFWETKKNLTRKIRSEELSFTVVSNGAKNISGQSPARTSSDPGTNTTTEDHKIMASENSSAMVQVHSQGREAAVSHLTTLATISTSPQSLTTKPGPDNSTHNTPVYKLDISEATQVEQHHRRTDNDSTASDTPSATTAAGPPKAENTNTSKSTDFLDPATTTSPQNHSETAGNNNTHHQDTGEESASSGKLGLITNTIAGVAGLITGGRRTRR
EBOV fusion protein, sequence (Q05320 502-676 limits assumed): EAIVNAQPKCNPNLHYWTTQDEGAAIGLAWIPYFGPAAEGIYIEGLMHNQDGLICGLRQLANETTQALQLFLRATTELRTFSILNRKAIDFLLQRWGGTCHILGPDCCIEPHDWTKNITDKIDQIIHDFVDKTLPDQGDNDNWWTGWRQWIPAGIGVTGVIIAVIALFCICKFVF

Row | Molecule | fusion blocked [1] | inhibition of nonenveloped Adenovirus infection [2] | inhibition of Ebola mediated cell-cell fusion (EBOV fusion protein) | effect on HCMV-GFP infection / plaque formation (HCMV-GFP; 10 μM) | also measured
1 | CCCCCC/C=C\CCCCCCCc1cccc(O)c1C(=O)O [GA C15:1, ginkgolic acid C15:1] | 100% | did not inhibit | inhibition of Ebola mediated cell-cell fusion | only single cells were infected | HCMV infectivity monitored by plaquing efficiency [3]: inhibited HCMV infectivity; decrease in Zika viral RNA levels (ZIKV (strain PRVABC59)): 80-90%; HSV-1 infection (ICP27, ICP8, Us11 by WB) (HSV-1 F' [4]): complete inhibition of the virus; HSV-1 protein synthesis in already infected cells (WB) (HSV-1 F' [5]): inhibiting the virus from that point
2 | CCCCCC/C=C\CCCCCCCCCc1cccc(O)c1C(=O)O [GA C17:1, Ginkgolic Acid C 17:1] | 100% | did not inhibit | inhibition of Ebola mediated cell-cell fusion | strong inhibitory effect on HCMV infection | 
3 | Nc1nc(O)c2ncn(COC(CO)CO)c2n1 [GCV, Ganciclovir, reference compound] |  |  |  |  | effect on HCMV-GFP infection / plaque formation (HCMV-GFP; 16 μM GCV): very strong inhibition of the virus
4 | CCCCCCCCCCCCCc1cccc(O)c1C(=O)O [GA C13:0, Ginkgolic acid (GA) C13:0] | 100% | did not inhibit | inhibition of Ebola mediated cell-cell fusion | strong inhibitory effect on HCMV infection | 
5 | Ginkgolic acid [GA] |  |  |  |  | fusion after GA was washed [1]: fusion was restored; fusion inhibition with oleic acid (OA) added together with GA [1]: abolished the inhibitory effect of GA; reduction of viral DNA (HCMV; GA added 3 hours after infection): about 80%; HCMV DNA copies, dose dependence (HCMV; different concentrations of GA): reduced in a dose dependent manner; toxicity [6]: no toxicity at the active inhibitory range

From patent publication US20200237698A1, “Viral Inhibitor” (priority 2017, published 2020)
